Reference: patent US20230233583A1, “USE OF PHYTOCANNABINOIDS FOR TREATING MULTIPLE MYELOMA” (priority 2020, published 2023)

Assays:
Assay type in all cases: cell-based, human
RPMI = experiment: Invasion assay in co-culture of HuOB and RPMI; settings: for effect on MM cell invasion, in words: RPMI in co-culture with HuOB, 24 hours
Procedure: (§1) Invasion assay: HuOB cells (1.5×10^4) were plated on the surface of Matrigel in a BioCoat™ Matrigel® Invasion Chamber, 8.0 μm PET Membrane (Coming®, cod. 354480) and incubated for two days. After, U266 and RPMI (2.5×10^4) were pre-stained with Calcein (1 μM) for two hours, then treated with CBG (12.5 μM), CBC (12.5 μM), CBN (12.5 μM) and CBDV (6.25 μM) and added in the chambers. MM cells with HuOB, untreated, were used as invasion positive control, MM cells without HuOB cells were used as negative control. After 24 hours, the number of MM cells that invaded the Matrigel were analysed via fluorescent microscope. Eight 10× sections images were counted for each chamber.
(§2) Invasion assay in co-culture of HuOB and MM cell lines: This study evaluated the effect of phytocannabinoids in reducing the invasion of MM cell lines toward HuOB. HuOB were plated on the surface of Matrigel in the BioCoat™ Matrigel® Invasion Chamber, 8.0 μm PET Membrane (Corning®, cod. 354480) and incubated for two days. After, U266 or RPMI were pre-stained with Calcein (10 μM) for two hours, then treated with CBG (25 μM), CBC (25 μM), CBN (25 μM) and CBDV (12.5 μM) and added in the chambers. MM cells with HuOB, untreated, were used as an invasion positive control, MM cells without HuOB cells were used as a negative control. After 24 hours, the number of MM cells that invaded the Matrigel were analysed via fluorescent microscope. Eight 10× sections images were counted for each chamber.

U266 = experiment: Invasion assay in co-culture of HuOB and U266; settings: 24 hours; for AVERAGE OF CELLS/square (MM cells that invaded the Matrigel): U266 + HuOB co-culture, CBG, CBC, CBN 12.5 μM, CBDV 6.25 μM or 25 μM and 12.5 μM, untreated U266 + HuOB 14.2 ± 0.9; for effect on MM cell invasion, in words: U266 in co-culture with HuOB
Procedure: as §1, §2

[1] = tested on: MM cell lines U266, SKO and RPMI; experiment: Annexin-V/PI staining, FACS analysis; settings: 48 hours, daily, CBG, CBN, CBDV 25 μM, CBC 75 μM
Procedure: Cell lines were treated for 48 hours with CBG (25 μM), CBN (25 μM), CBDV (25 μM) or CBC (75 μM) and the percentage of Annexin-V/PI positive cells were determined by FACS analysis. Values in overlays on each plot: upper left=necrotic cells; upper right=late death cells (both apoptotic and necrotic); lower left=live cells; and lower right=apoptotic cells. Data for each phytocannabinoid (lower plots in each Figure) expressed as percentage of PI positive cells with respect to vehicle treated cells (upper plots in each Figure).
Apoptosis assays and PI staining: Cell death was evaluated using the Annexin V-FITC Apoptosis detection Kit (eBioscience) followed by biparametric fluorescence-activated cell sorting (FACS) analysis. Cells, at a density of 4×10^4 cells/ml, were treated with CBG, CBC, CBN or CBDV for a maximum of 48 hours, with daily administration, and then incubated with Annexin V-FITC and propidium iodide (PI), following the protocol provided. The percentage of positive cells determined over 10,000 events was analysed on a FACScan cytofluorimeter using the CellQuest software.
(§3) Phytocannabinoids induce necrotic cell death in MM cell lines: To evaluate the cytotoxic mechanism induced by the phytocannabinoids, MM cell lines were treated daily with a cytotoxic dose for each phytocannabinoid (CBG: 25 μM; CBC 75 μM; CBN 25 μM; CBDV 25 μM) for 48 hours and then Annexin-V/PI cell positivity was evaluated by FACS analysis. The results evidenced that all of the phytocannabinoids induced necrotic cell death but had different efficacies (FIGS. 5-16). To confirm the necrotic cell death mechanism, MM cell lines were treated as above and DNA damage was evaluated by H2AX (a marker to examine the DNA damage produced and the subsequent repair of the DNA lesion) Western blot analysis and Comet assay (permits the analysis of DNA damage in single cell preparations). The result confirmed the DNA damage induced by the phytocannabinoid analysed. In particular, an increase of H2AX levels were observed by Western blot (FIGS. 17-20) and DNA damage by Comet assay that evidenced structures resembling comets in the treated cell lines (FIGS. 21-24).

[2] = tested on: MM cell lines SKO, U266 and RPMI; experiment: Alkaline Comet assay; settings: 48 hrs, CBG, CBN, CBDV 25 μM, CBC 75 μM
Procedure: Damage to cellular DNA of the cell lines SKO (upper images in each of FIGS. 21-24), U266 (middle images in each of FIGS. 21-24) and RPMI (lower images in each of FIGS. 21-24) due to exposure to CBG (25 μM; FIG. 21), CBC (75 μM; FIG. 22), CBN (25 μM; FIG. 23) and CBDV (25 μM; FIG. 24) were assessed using the Comet assay.
Alkaline Comet Assay: U266, SKO and RPMI myeloma cell lines were plated in 6-well plates (4×10^4 cell/well) one day before treatment exposure. Semi-confluent cultures were exposed for 48 hrs with 25 μM of CBG, CBN or CBDV or 75 μM of CBC. Controls, treated with vehicle, were included in all series. The Comet assay was performed under alkaline conditions following the ABCAM™ protocol. Briefly, after exposure to the phytocannabinoid, the cells were incubated for 48 hrs in Roswell Park Memorial Institute (RPMI) medium. Then the cells were resuspended in 1×PBS and added to 75 μL of molten (37° C.) 0.5% low-melting-point agarose gel to achieve a cell concentration of 1×10^5 cells/mL. The agarose was pipetted onto the Comet slides. Slides were stored in the dark at 4° C. for 10 min before adding pre-chilled lysis buffer for 45 min. The slides were immersed in freshly prepared alkaline solution (0.25 M NaOH containing […] EDTA, pH 12.6) for 30 min at room temperature. Slides were then removed and washed twice with alkaline solution for 5 min. Gel electrophoresis was performed at 1 V/cm for 30 min (running amperage 3-5 mA with the distance between the two electrodes of 25 cm). The Comet slides were washed with 70% ethanol for 5 min and air-dried for one hour at room temperature. 100 μL of diluted SYBR™ Green solution was placed onto each dried agarose circle. The slides were then read with a fluorescence microscope (LEIKA).
as §3, with “In particular, an increase of H2AX levels were observed by Western blot (FIGS. 17-20) and DNA damage by Comet assay that evidenced structures resembling comets in the treated cell lines (FIGS. 21-24).” left out

SMILES | AVERAGE OF CELLS/square (MM cells that invaded the Matrigel) (RPMI) | effect on MM cell invasion, in words (RPMI) | AVERAGE OF CELLS/square (MM cells that invaded the Matrigel) (U266) | effect on MM cell invasion, in words (U266) | necrotic cell death (Annexin-V/PI positive cells), in words [1] | DNA damage by Comet assay, in words [2]
CCCCCc1cc(O)c2c(c1)OC(C)(C)c1ccc(C)cc1-2 [CBN, 6,6,9-trimethyl-3-pentylbenzo[c]chromen-1-ol] | 3.3 ± 0.1 CELLS/square | higher activity | 7.0 ± 0.2 CELLS/square | higher activity | induce necrosis | induce DNA damage
C=C(C)[C@@H]1CCC(C)=C[C@H]1c1c(O)cc(CCC)cc1O [CBDV, 2-[(1R,6R)-3-methyl-6-prop-1-en-2-ylcyclohex-2-en-1-yl]-5-propylbenzene-1,3-diol] | 35.6 ± 2.4 CELLS/square |  | 11.2 ± 1.1 CELLS/square |  | induce necrosis | induce DNA damage
CCCCCc1cc(O)c(C/C=C(\C)CCC=C(C)C)c(O)c1 [CBG, 2-[(2E)-3,7-dimethylocta-2,6-dienyl]-5-pentylbenzene-1,3-diol] | 1.6 ± 0.2 CELLS/square | higher activity | 3.2 ± 0.2 CELLS/square | higher activity | induce necrosis | induce DNA damage
CCCCCc1cc(O)c2c(c1)OC(C)(CCC=C(C)C)C=C2 (centres unmarked) [CBC, 2-methyl-2-(4-methylpent-3-enyl)-7-pentylchromen-5-ol] | 29.3 ± 1.7 CELLS/square |  | 12.5 ± 1.1 CELLS/square |  | induce necrosis | induce DNA damage
